Several values for one entry are separate records, joined by “and”; a condition that tells them apart may be missing. Equal entries are not always repeated.
How the values were obtained:
Aedes aegypti mosquitoes [1] = experiment: Mosquito repellency on skin (olfactometer, human forearm); format: in vivo; conditions: for Percent Repellency 2 h: 0.3 mg/cm^2, 2 h after application; for Percent Repellency 0 h: 0.3 mg/cm^2, 0 h after application
Source text: Olfactometer: A Fiensod and Spielman olfactometer, as modified by Bowen and Davis, measured the host-oriented flight response of female mosquitoes to volatile host emanations (Feinsod, F. M., and A. Spielman; An olfactometer for measuring host-seeking behavior of female Aedes aegypti (Diptera: Culicidae); J. Med. Entomol., 15: 282-285, 1979). The olfactometer (approximately 38 cm high) consisted of an upper and lower screened chamber with a closure between the chambers (FIG. 8). A fan placed above the upper chamber drew air through the apparatus at approximately 0.2 m/s. A temperature and humidity controlled chamber (5′ wide by 6′ long by 8′ high) was constructed to house the test subject and the olfactometer.
Rearing of Mosquitoes: A second environmental chamber, maintained at 27° C. and 80% humidity, was dedicated to the rearing of Aedes aegypti mosquitoes. Routine shipments of eggs (American Biological Supply, Gainesville, Fla.) were used to maintain a continuous supply of adult 5-10 day old mosquitoes.
Assays for Attraction of Mosquitoes to Human Subjects: A group of 30 volunteers, consisting of 14 females and 16 males and ranging in age from 24 to 68 years, was selected from the surrounding civilian population. Individuals were tested for their ability to attract Aedes aegypti mosquitoes contained in the olfactometer. Tests were conducted at a temperature of 27° C. and 50% relative humidity. For each trial 15 avid adult female Aedes aegypti mosquitoes (5-10 days post-emergence) were placed in the upper chamber. A small fan was placed on top of the upper chamber to cause an air flow from the lower chamber to the upper chamber. A trial began when the closure between the upper and lower chamber was opened in the absence of a human host. The number of mosquitoes entering the lower chamber within a 3 minute period was recorded. The volunteer then placed his or her arm beneath the lower chamber and the number of mosquitoes flying from the upper chamber to the lower chamber was recorded for the time intervals 0-1, 1-3, 3-5 and 5-7 minutes. This trial was repeated twice during a test session to obtain three replicates. Two additional test sessions, at time intervals of at least 1 week, were conducted to obtain at least 8-9 replicates for each of 24 subjects. Of the remaining 6 subjects, 3 were tested on two separate occasions for a total of 6 replicates per subject; 3 were tested on one occasion for a total of 3 replicates per subject. A total of 254 tests were conducted.
Test compounds were dissolved in acetone or ethanol at a concentration of 300 mg/5 cc. Ethanol solutions of carboxylic acids were prepared just prior to use. Three hundred and fifty microliters of these solutions were applied to a 70 cm^2 rectangular area of the forearm. The resultant dose was 0.3 mg/cm^2. The repellent treated area was allowed to dry for 5 minutes prior to test. The treated skin area was placed under the olfactometer and tests were conducted as described in the preceding paragraph, “Assays for attraction of mosquitoes to human subjects”. Percent repellency was determined from the fraction of mosquitoes entering the lower chamber over a seven minute period.
A commercial formulation of DEET (Skintastic, S. C. Johnson, Racine,) was applied to a 100 cm^2 area on the forearm of 1 volunteer (subject 02) to give a dose of 0.3 mg/cm^2 of DEET. A formulation of C8C9C10 (5% octanoic, 5% nonanoic, 5% decanoic in Dow Corning 345 volatile silicone fluid) was applied to a 100 cm^2 on the subject's other arm to give a dose of 0.3 mg/cm^2 total acids. Application sites were placed under the olfactometer at 1, 2 and 4 hours after treatment. Untreated areas on each arm were placed under the olfactometer at the completion of the treated area tests to check the avidity of the mosquitoes. Tests were done on four separate test days. […]

Aedes aegypti mosquitoes [2] = experiment: as above; format: in vivo
Thermal stability = format: physicochemical
Aedes aegypti mosquitoes [3] = experiment: Mosquito repellency on gauze or polyester film (olfactometer); format: in vivo; conditions: cotton gauze or polyester film, 0.3 mg/cm^2, 3 minutes after application
Source text: Olfactometer: A Fiensod and […] olfactometer, as modified by Bowen and Davis, measured the host-oriented flight response of female mosquitoes to volatile host emanations (Feinsod, F. M., and […]; An olfactometer for measuring host-seeking behavior of female Aedes aegypti (Diptera: Culicidae); J. Med. Entomol., 15: 282-285, 1979). The olfactometer (approximately 38 cm high) consisted of an upper and lower screened chamber with a closure between the chambers (FIG. 8). A fan placed above the upper chamber drew air through the apparatus at approximately 0.2 m/s. A temperature and humidity controlled chamber (5' wide by 6' long by 8' high) was constructed to house the test subject and the olfactometer. Rearing of Mosquitoes: A second environmental chamber, maintained at 27° C. and 80% humidity, was dedicated to the rearing of Aedes aegypti mosquitoes. […] Assays for Attraction of Mosquitoes to Human Subjects: A group of 30 volunteers, consisting of 14 females and 16 males and ranging in age from 24 to 68 years, was selected from the surrounding civilian population. Individuals were tested for their ability to attract Aedes aegypti mosquitoes contained in the olfactometer. Tests were conducted at a temperature of 27° C. and 50% relative humidity. […] A small fan was placed on top of the upper chamber to cause an air flow from the lower chamber to the upper chamber. A trial began when the closure between the upper and lower chamber was opened in the absence of a human host. […] This trial was repeated twice during a test session to obtain three replicates. Two additional test sessions, at time intervals of at least 1 week, were conducted to obtain at least 8-9 replicates for each of 24 subjects. Of the remaining 6 subjects, 3 were tested on two separate occasions for a total of 6 replicates per subject; 3 were tested on one occasion for a total of 3 replicates per subject. A total of 254 tests were conducted. Test compounds were dissolved in acetone or ethanol at a concentration of 150 mg/5 cc. Ethanol solutions of carboxylic acids were prepared just prior to use. Five hundred microliters of these solutions were applied to a 50 cm^2 circular area of a single layer of cotton gauze (Curity Curad gauze, Futuro Inc., Milford, Ohio) or nonwoven polyester film ([…], Inc.). The resultant dose was 0.3 mg/cm^2. […] The cup was attached to the bottom of the olfactometer (FIG. 8) so that air flowed through the stainless steel screen of the cup, through the treated gauze or film, and through the olfactometer. A volunteer's forearm was placed under the cup, so that air drawn into the cup and olfactometer was laden with human skin emanations. Tests were conducted as described in the preceding paragraph, “Assays for attraction of mosquitoes to human subjects”. Percent repellency was determined from the fraction of mosquitoes entering the lower chamber over a seven minute period. This assay is an approximate measure of the intrinsic repellency of a compound. Good repellency in this test is a necessary, but not sufficient, condition for good repellency on skin. Mosquito repellents must produce a vapor over the skin surface to confuse the host seeking behavior of the insect. However, volatilization must not be so great that the repellent action rapidly dissipates. Since volatilization from the skin will be different from an inanimate surface, skin tests are necessary to confirm that a compound will be a practical repellent.

Ionization at skin pH = format: physicochemical; conditions: pH = pKa of the acids
Source text: Naturally occurring fatty acids contain both polar (carboxylic acid group) and non-polar (alkyl chain) regions in their structure and the lower molecular weight homologs are sufficiently volatile to evaporate from the skin surface. Individually, these compounds have repellent activity. A number of these compounds were applied to non-absorptive gauze mounted between the human forearm and the olfactometer containing mosquitoes. These tests were done immediately after application to minimize losses due to evaporation (described fully in “Example 2” below). Because skin absorption and evaporative loss is minimized, this test can be regarded as a measure of the potency of the compounds. Homologs containing 8 to 11 carbon atoms had similar potency (percent repellency), which was greater than that of DEET (FIG. 3). Six carbon homologs and twelve carbon homologs had potency equal to or less than DEET. […] Percent repellency dropped dramatically with increasing numbers of carbon atoms in the molecule (FIG. 4). […] The nonanoic acid was preferably saturated. 4MOCTAN had the best overall performance at the zero and two hour time points. It should be noted for FIGS. 4 and 5 that the carboxylic acids exist on the skin at a pH which ionizes 50% of the molecules (pH=pKa of the acids). Since the ionized species are not volatile, the actual available dose is approximately 50% of that for DEET.

Vapor pressure = format: physicochemical; conditions: at 125° C., estimated or extrapolated from literature values
Aedes aegypti = conditions: 0.5 mg/cm^2 on the skin of man; cited from earlier work
Aedes aegypti mosquitoes [4] = conditions: 0.31 mg/cm^2; cited from earlier work
mosquitoes [5] = conditions: under laboratory conditions; cited from earlier work
[6] = test system: yellow fever mosquito (Aedes aegypti (L.)); conditions: human skin, approximately 2 mg/cm^2, time until two bites; DEET from Gilbert 1957; cited from earlier work
mosquitoes [7] = conditions: Hill et al. 1979; cited from earlier work
[8] = at 125° C., literature values; cited from earlier work
[9] = on skin, listed as N,N-Diethyl-m-toluamide

In the case of `CCCCC(C)CCC(=O)O` (centres unmarked) [4-Methyloctanoic acid], the “repellency immediately after application to skin, compared to DEET” value (Aedes aegypti mosquitoes [1]; FIG. 4) is reported as “comparable to DEET”, the “repellency two hours after skin application, ranking” value (Aedes aegypti mosquitoes [1]; FIG. 5) is reported as “highest repellency” and the “Percent Repellency 2 h” value (Aedes aegypti mosquitoes [1]; on skin) is reported as 66 (1) %. For the same molecule, the “repellency over a 4 hour period compared to DEET” value (Aedes aegypti mosquitoes [2]; 0.6 mg/cm^2 versus 0.3 mg/cm^2 DEET, FIG. 6) was “nearly equal to that of DEET”, the “Percent Repellency 2 h” value (Aedes aegypti mosquitoes [2]; on skin, 0.6 mg/cm^2, 2 h after application) was 79 ± 21 (2) % and the “Percent Repellency 4 h” value (Aedes aegypti mosquitoes [2]; on skin, 0.6 mg/cm^2, 4 h after application) was 67 ± 9%. The Thermal stability (Thermal stability) was “thermally unstable”, the pest or weed control at 0.3 mg/cm2 (Aedes aegypti mosquitoes [3]; Aedes aegypti, 0.05 h, read-out: Percent Repellency) was 88 ± 18% and the “fraction ionized at skin pH” value (Ionization at skin pH) was “about 50%”. For the same molecule, the “Vol. (vapor pressure), (est)” value (Vapor pressure) was 6 (est) mm Hg.
For `CCN(CC)C(=O)c1cccc(C)c1` [DEET, N,N,-diethyl-m-toluamide, reference compound], the “Protection Time” value (Aedes aegypti) is given as 8 ± 2 h, the “Percent Repellency 0 h” value (Aedes aegypti mosquitoes [1]; on skin) is given as 95% and 95 ± 6% and the “Percent Repellency 0 h” value (Aedes aegypti mosquitoes [1]; [9]) is given as 95 ± 6 (3) %. The “Percent Repellency 2 h” value (Aedes aegypti mosquitoes [1]; on skin) was 89% and 89 ± 10%, the “Percent Repellency 2 h” value (Aedes aegypti mosquitoes [1]; [9]) was 89 ± 10 (3) % and the “Percent Repellency 4 h” value (Aedes aegypti mosquitoes [1]; on skin, 0.3 mg/cm^2, 4 h after application) was 83 ± 9%. For the same molecule, the “Protection time against Aedes aegypti mosquitoes” value (Aedes aegypti mosquitoes [4]) was 5.5 h, the hours of protection (mosquitoes [5]) was 5 to 7 h and the “Protection time against yellow fever mosquitoes” value [6] was 363 min^b. For the same molecule, the “protects against mosquitoes for” value (mosquitoes [7]) was 5 to 6 h, the “Percent Repellency” value (Aedes aegypti mosquitoes [3]) was 74% and the “Percent Repellency” value (Aedes aegypti mosquitoes [3]; listed as N,N-Diethyl-m-toluamide) was 74 ± 12%.
For `CCCCCC(=O)O` [Hexanoic acid], the “Vol. (vapor pressure)” value [8] is given as 39.6 mm Hg.

Source: patent US6953814B2, “Natural insect repellant” (Stratacor, Inc., priority 1997, dated 2005)
